Measurements as given in publication PMC6778101 (Nature Communications, 2019).
Read-outs that look alike come from different tables or passages of the source. Ends that are not written are not given here.

What was measured:
Type in all cases: cell-based, Escherichia coli
E. coli K-12 BW25113 [1] = experiment: microbe, parasite or virus in culture
Excerpt: Unless otherwise indicated, Minimal Salt (MS) medium was used in all experiments, including the laboratory evolution experiments. In line with previous, methodologically relevant laboratory evolution studies, the physical conditions (including the medium) were the same during the course of laboratory evolution and all forthcoming assays on the resulting resistant lines (e.g. MIC measurements). We previously optimized this medium for studying AMPs (1 g L^−1 (NH4)2SO4, 3 g L^−1 KH2PO4 and 7 g L^−1 K2HPO4 supplemented with 0.1 mM MgSO4, 0.54 µg mL^−1 FeCl3, 1 µg mL^−1 thiamine hydrochloride, 0.2% Casamino acids and 0.2% glucose)[19]. This medium is highly controlled and provides a reproducible environment for experimental evolution experiments. All components were obtained from Sigma-Aldrich.
MICs were determined using a standard serial broth dilution technique. Briefly, 11-step serial dilutions were prepared in 96-well microtiter plates with three replicates per strain and antimicrobial compound. Each experiment was repeated at least twice. 5 × 10^5 cells/mL were inoculated into each well, and the plates were incubated at 30 °C in case of E. coli K-12 BW25113, and its antibiotic and AMP-adapted lines, or 37 °C in case of the other bacterial species. […] Cell growth was monitored by measuring the optical density (OD600 value, Biotek Synergy 2 microplate reader was used for this purpose). […] Relative MIC was calculated as follows: MICrelative = MICevolved/MICcontrol.

[2] = system: E. coli K-12 BW25113 carrying ASKA plasmids; experiment: microbe, parasite or virus in culture; conditions: MS medium + 10 µg mL−1 CHL + 500 µM IPTG, 5 × 10^5 cells, 16–18 h, 37 °C; for MIC: Escherichia coli
Excerpt: Bacterial gene amplification generates extensive genetic variation that can provide drug resistance[37],[38]. As gene amplification events tend to be genetically unstable and reduce bacterial fitness, they are transient in nature. Using the ASKA library, which comprises each E. coli ORF cloned into an expression vector[40], we have conducted a global survey to evaluate whether artificially amplified genes provide resistance to any of the 14 AMPs and 11 antibiotics tested. As chloramphenicol (CHL) was used as a selection marker for the ASKA plasmid, this antibiotic was not tested in this screen. E. coli K-12 BW25113 cells were transformed with the pooled plasmids of the ASKA library, and the genetically mixed populations were exposed to increasing levels of AMP or antibiotic stresses, respectively. In all cases, the employed AMP or antibiotic dosages were above the MIC of the wild type. For each drug, we identified the MIC provided in the pooled ASKA plasmid library, and compared it to the MIC of the wild-type strain carrying the empty ASKA plasmid.
The ASKA library (a complete set of E. coli K-12 ORF archive) includes every E. coli ORF cloned into an expression vector (pCA24N)[65]. Prior to screening, the ASKA plasmid collection was pooled and transformed into E. coli K-12 BW25113 strain[66]. The plasmid pool was created by pooling an equal aliquot of cells, each carrying different members of the ASKA library, followed by plasmid miniprep. Next, the plasmid pool was electroporated into E. coli K-12 BW25113 competent cells. […] For the MICs measurements 500 000 cells were inoculated in each well which represents ~100 times coverage of each library member. […] Prior to the measurements the cell population containing the pooled overexpression library or the control strain containing the empty vector were grown in three replicates in LB medium supplemented with 20 µg/mL CHL. As the culture reached high density (i.e., OD600 > 0.8), expression of the plasmid was induced by 50 µM IPTG for 1 h. Following induction, 5 × 10^5 bacterial cells were inoculated in three replicates into each well of the 96-well plate and incubated for 16–18 h at 37 °C. Following incubation the MIC values were determined by measuring optical densities in a plate reader (Biotek Synergy).

E. coli K-12 BW25113 [3] = experiment: Laboratory evolution of resistance, MIC fold change of adapted lines; conditions: ~120 generations under increasing drug concentration
Excerpt: Our first goal was to study resistance evolution against a set of AMPs and antibiotics. We have followed established protocols with minor modifications to evolve bacterial populations under controlled laboratory conditions[19],[20]. The applied protocol aims to maximize the level of drug resistance in the evolving populations achieved during a fixed time period. We have initiated a laboratory evolution experiment, starting with a single clone of Escherichia coli K-12 BW25113 (abbreviated as E. coli K-12 BW25113). Parallel evolving populations were exposed to increasing concentrations of one of 14 AMPs (Supplementary Table 1). Peptides were chosen based on the following criteria: diverse sources (synthetic/natural), different putative mechanisms of action, structural diversity, and clinical relevance. Another set of populations were exposed to one of 12 clinically relevant antibiotics (Supplementary Table 2), using the same protocol. Accordingly, we have propagated 10 independent populations in the presence of each AMP or antibiotic for ∼120 generations. We isolated a single, representative clone from each population, resulting in 140 AMP-adapted lines and 120 antibiotic-adapted lines. Throughout the paper, we compare the level of resistance in the evolved lines to the corresponding wild-type strain by measuring changes in the drugs’ minimum inhibitory concentrations (MIC).
The evolutionary protocol was designed to avoid population extinction and to ensure that populations with the highest level of resistance were propagated further. Starting with a subinhibitory drug concentration (Supplementary Data 8), resulting in ~50% growth inhibition, 10 parallel populations per drug were allowed to grow in Minimal Salts medium for 72 h and 300 r.p.m. E. coli K-12 BW25113 and E. coli mutD5 populations were incubated at 30 °C, while E. coli ATCC 25922, S. enterica LT2, K. pneumonia ATCC 10031, and A. baumannii ATCC 17978 were incubated at 37 °C. […] Prior to each transfer, cell growth was monitored by measuring the optical density at 600 nm (OD600 value, Biotek Synergy 2 microplate reader). Only populations with the highest drug concentration (and reaching OD600 > 0.2) were selected for further evolution. A chess-board layout was used on the plate to monitor potential cross-contamination events. […] E. coli mutD5 was adapted to TPII, also in 10 parallel evolving populations.
MICs were determined using a standard serial broth dilution technique. Briefly, 11-step serial dilutions were prepared in 96-well microtiter plates with three replicates per strain and antimicrobial compound. Each experiment was repeated at least twice. 5 × 10^5 cells/mL were inoculated into each well, and the plates were incubated at 30 °C in case of E. coli K-12 BW25113, and its antibiotic and AMP-adapted lines, or 37 °C in case of the other bacterial species. Plates were shaken at 300 r.p.m. during incubation for 24 and 18 h, respectively. Cell growth was monitored by measuring the optical density (OD600 value, Biotek Synergy 2 microplate reader was used for this purpose). […] Relative MIC was calculated as follows: MICrelative = MICevolved/MICcontrol.

[4] = Escherichia coli, BW25113, 24 h, read-out: MIC
[5] = BW25113, Replicate 1, read-out: MIC value of E. coli K-12 BW25113 carrying the empty plasmid of the ASKA library
[6] = BW25113, Replicate 1, read-out: MIC value of E. coli K-12 BW25113 carrying the pooled plasmids of the ASKA library
[7] = BW25113, Replicate 2, read-out: MIC value of E. coli K-12 BW25113 carrying the empty plasmid of the ASKA library
[8] = BW25113, Replicate 2, read-out: MIC value of E. coli K-12 BW25113 carrying the pooled plasmids of the ASKA library
[9] = BW25113, Replicate 3, read-out: MIC value of E. coli K-12 BW25113 carrying the empty plasmid of the ASKA library
[10] = BW25113, Replicate 3, read-out: MIC value of E. coli K-12 BW25113 carrying the pooled plasmids of the ASKA library
[11] = starting wild-type strain of the evolution experiment, broth dilution, MS medium, 5 × 10^5 cells/mL, 30 °C, 24 h, MIC = OD600 < 0.05

Compound	MIC (E. coli K-12 BW25113 [1]; [4])	MIC [2, 5]	MIC [2, 6]	MIC [2, 7]	MIC [2, 8]	MIC [2, 9]	MIC [2, 10]	MIC (E. coli K-12 BW25113 [1]; Escherichia coli, BW25113, 24 h)	MIC (E. coli K-12 BW25113 [1]; [11])	MIC value of E. coli K-12 BW25113 carrying the empty plasmid of the ASKA library ([2]; Replicate 1)	MIC value of E. coli K-12 BW25113 carrying the pooled plasmids of the ASKA library ([2]; Replicate 1)	MIC value of E. coli K-12 BW25113 carrying the empty plasmid of the ASKA library ([2]; Replicate 2)	MIC value of E. coli K-12 BW25113 carrying the pooled plasmids of the ASKA library ([2]; Replicate 2)	MIC value of E. coli K-12 BW25113 carrying the empty plasmid of the ASKA library ([2]; Replicate 3)	MIC value of E. coli K-12 BW25113 carrying the pooled plasmids of the ASKA library ([2]; Replicate 3)	resistance in evolved lines after laboratory evolution (in words) (E. coli K-12 BW25113 [3])
C[C@H]1c2cccc(O)c2C(=O)C2=C(O)[C@]3(O)C(=O)C(C(N)=O)=C(O)[C@@H](N(C)C)[C@@H]3[C@@H](O)[C@@H]21 [DOX, Doxycycline]	1.5 µg/mL	0.56 µg/mL	1.59 µg/mL	0.43 µg/mL	1.59 µg/mL	0.56 µg/mL	1.59 µg/mL									
CC[C@H]1OC(=O)[C@H](C)[C@@H](O[C@H]2C[C@@](C)(OC)[C@@H](O)[C@H](C)O2)[C@H](C)[C@@H](O[C@@H]2O[C@H](C)C[C@H](N(C)C)[C@H]2O)[C@](C)(O)C[C@@H](C)C(=O)[C@H](C)[C@@H](O)[C@]1(C)O [ERY, Erythromycin]		11 µg/mL	18.6 µg/mL	14.3 µg/mL	24.1 µg/mL	14.3 µg/mL	24.1 µg/mL									
CO[C@@]1(NC(=O)Cc2cccs2)C(=O)N2C(C(=O)O)=C(COC(N)=O)CS[C@@H]21 [FOX, Cefoxitin]	4.9 µg/mL	6.07 µg/mL	69.2 µg/mL	6.07 µg/mL	69.2 µg/mL	6.07 µg/mL	69.2 µg/mL									
CCn1cc(C(=O)O)c(=O)c2ccc(C)nc21 [NAL, Nalidixic acid]	6.35 µg/mL	0.37 µg/mL	1.05 µg/mL	0.37 µg/mL	1.05 µg/mL	0.37 µg/mL	1.05 µg/mL									
O=C1CN(/N=C/c2ccc([N+](=O)[O-])o2)C(=O)N1 [NIT, Nitrofurantoin]		6.53 µg/mL	14.7 µg/mL	6.53 µg/mL	14.7 µg/mL	6.53 µg/mL	6.53 µg/mL	35 µg/mL								
CN(C)[C@@H]1C(O)=C(C(N)=O)C(=O)[C@@]2(O)C(O)=C3C(=O)c4c(O)cccc4[C@@](C)(O)[C@H]3C[C@@H]12 [TET, Tetracycline]	1.2 µg/mL	0.62 µg/mL	1.29 µg/mL	0.62 µg/mL	1.07 µg/mL	0.62 µg/mL	1.07 µg/mL									
FLGKVFKLASKVFKAVFGKV [R8]									20 µg/mL	11.57 µg/mL	11.57 µg/mL	11.57 µg/mL	11.57 µg/mL	11.57 µg/mL	9.46 µg/mL	
GLRKRLRKFRNKIKEKLKKIGQKIQGFVPKLAPRTDY [CAP18, rabbit CAP18]									120 µg/mL	24.11 µg/mL	24.11 µg/mL	20.09 µg/mL	24.11 µg/mL	24.11 µg/mL	24.11 µg/mL	
RRRPRPPYLPRPRPPPFFPPRLPPRIPPGFPPRFPPRFP [PR39]									5 µg/mL	5.79 µg/mL	5.79 µg/mL	5.79 µg/mL	5.79 µg/mL	5.79 µg/mL	5.79 µg/mL	
TSSPPAAVVVRRRRRRRRRRRRRRRRRRR [PROA, protamine, cationic AMP purchased from Sigma-Aldrich]									310 µg/mL	126.51 µg/mL	126.51 µg/mL	126.51 µg/mL	36.15 µg/mL	442.78 µg/mL	442.78 µg/mL	isolated resistant mutants
